CC(C)(c1ccc(O)cc1)c1ccc(O)cc1
solubility (mole fraction)
Conditions	273.15 K	278.15 K	283.15 K	288.15 K	293.15 K	298.15 K	303.15 K	308.15 K	313.15 K
in ethanol	0.209	0.214	0.22	0.226	0.232	0.238	0.245	0.252	0.26
in ethyl acetate	0.234	0.238	0.241	0.243	0.247	0.252	0.256	0.261	0.266
in n-butanol	0.0745	0.0832	0.094	0.106	0.119	0.135	0.147	0.166	0.183
in sec-butanol	0.0343	0.0391	0.0465	0.0564	0.0649	0.0725	0.0846	0.094	0.105
